Reference: ChEMBL document CHEMBL1201862, “PubChem BioAssay data set” (2004)
Calls of active or inactive are those of the source.

Experiments:
[1] = NIH-3T3 fibroblast cytotoxicity, dose response, cytotoxicity control, cell-based, fluorescence, Alamar Blue, secondary assay (AID 2327); assay type: functional;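 note: NIH-3T3 mouse fibroblasts cultured with fluconazole at 8 µg/mL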
[2] = fluconazole-exposed Candida albicans growth modulators – fluorescence, retest, confirmation (AID 2467); assay type: functional, cell-based
[3] = Trypanosoma cruzi growth suppression in host cells – NIH3T3 host cells, beta-gal luminescence, confirmation (AID 2044); assay type: functional, cell-based;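 note: intracellular parasites grown in NIH/3T3 mouse fibroblasts as host cells; luminescent beta-galactosidase reporter signal from transgenic T. cruzi replicating inside host cells; inhibitors lower the luminescence signal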
[4] = NIH3T3 cell viability loss – ATP luminescence, mouse fibroblasts, counter-screen, dose response (AID 2010); assay type: functional, cell-based;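 note: cells exposed to compound for about 90 hours before reading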
[5] = blockers of HIV-1 envelope-mediated cell-cell fusion – cherry-pick, dose response (AID 652057); assay type: functional, cell-based
[6] = viability loss in CEM21 cells – cell-based, CellTiter-Glo luminescence, cherry-picked, cytotoxicity control for viral fusion inhibitor project, dose response (AID 652042); assay type: functional;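 note: potency for signal decrease meaning cytotoxicity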
[7] = blockers of HIV-1 ZM109 envelope-driven cell-cell fusion – HeLa effector, CEM target cells, luciferase, cherry-pick, dose response (AID 652058); assay type: functional, cell-based;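 note: luciferase signal from HIV-1 Env mediated cell-cell fusion of effector and target cells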
[8] = off-target signal loss in HeLa-CEM21 co-culture – HeLa F-luc CTL cells, cherry-picked, counter-screen for HIV-1 Env fusion inhibitor project, dose response (AID 652040); assay type: functional, cell-based;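 note: potency for signal decrease marking cytotoxic or nonspecific inhibition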
[9] = HIV-1 AD8 envelope cell-cell fusion blockers – cherry-pick, dose response (AID 652062); assay type: functional, cell-based;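 note: luciferase signal from cell-cell fusion driven by HIV-1 clade B AD8 Env; potency is for inhibitors of fusion seen as a drop in luminescence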
[10] = molecular target: FAD-linked sulfhydryl oxidase ALR (Homo sapiens, UniProt P55789); assay: ALR-catalysed DTT oxidation blockers – biochemical, H2O2 detection, luminescence, cherry-pick, dose response (AID 493248)
[11] = molecular target: T1, Replicative DNA helicase DnaB (Mycobacterium tuberculosis, UniProt P9WMR3); assay: DnaB intein splicing inhibitors, dose response, biochemical, cell-free fluorescence (AID 449749); assay type: functional
T1 sequence (P9WMR3 whole entry): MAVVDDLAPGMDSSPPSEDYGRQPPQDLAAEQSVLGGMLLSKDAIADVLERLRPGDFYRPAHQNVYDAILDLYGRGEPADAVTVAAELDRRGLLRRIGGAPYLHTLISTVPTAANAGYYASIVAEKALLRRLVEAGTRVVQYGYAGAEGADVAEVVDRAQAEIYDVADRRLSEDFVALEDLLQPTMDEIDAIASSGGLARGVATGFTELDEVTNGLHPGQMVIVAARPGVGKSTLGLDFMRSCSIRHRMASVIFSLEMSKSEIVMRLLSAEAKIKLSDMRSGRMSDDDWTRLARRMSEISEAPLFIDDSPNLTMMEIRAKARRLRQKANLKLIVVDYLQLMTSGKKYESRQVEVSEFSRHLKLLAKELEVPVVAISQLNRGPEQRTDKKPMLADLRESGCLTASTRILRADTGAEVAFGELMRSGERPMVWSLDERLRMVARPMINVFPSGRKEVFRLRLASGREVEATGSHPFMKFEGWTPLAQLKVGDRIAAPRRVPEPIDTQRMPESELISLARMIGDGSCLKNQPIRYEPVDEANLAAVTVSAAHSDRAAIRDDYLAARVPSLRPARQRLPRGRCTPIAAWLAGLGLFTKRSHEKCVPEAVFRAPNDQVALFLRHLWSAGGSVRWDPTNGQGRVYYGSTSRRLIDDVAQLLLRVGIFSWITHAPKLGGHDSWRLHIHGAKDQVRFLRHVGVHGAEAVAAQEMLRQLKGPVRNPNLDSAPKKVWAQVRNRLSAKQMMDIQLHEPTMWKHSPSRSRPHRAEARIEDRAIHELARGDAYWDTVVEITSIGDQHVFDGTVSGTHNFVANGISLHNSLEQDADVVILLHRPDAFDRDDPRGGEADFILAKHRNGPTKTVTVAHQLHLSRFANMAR

[12] = molecular target: T2, Protein RecA (Mycobacterium tuberculosis, UniProt P9WHJ3); assay: Fluorescence Cell-Free Homogeneous Dose Retest to Identify Inhibitors of RecA-Intein Splicing Activity. [Related pubchem assays (depositor defined):AID2097, AID2223, AID489010, AID492950]; assay type: functional
T2 sequence (P9WHJ3 whole entry): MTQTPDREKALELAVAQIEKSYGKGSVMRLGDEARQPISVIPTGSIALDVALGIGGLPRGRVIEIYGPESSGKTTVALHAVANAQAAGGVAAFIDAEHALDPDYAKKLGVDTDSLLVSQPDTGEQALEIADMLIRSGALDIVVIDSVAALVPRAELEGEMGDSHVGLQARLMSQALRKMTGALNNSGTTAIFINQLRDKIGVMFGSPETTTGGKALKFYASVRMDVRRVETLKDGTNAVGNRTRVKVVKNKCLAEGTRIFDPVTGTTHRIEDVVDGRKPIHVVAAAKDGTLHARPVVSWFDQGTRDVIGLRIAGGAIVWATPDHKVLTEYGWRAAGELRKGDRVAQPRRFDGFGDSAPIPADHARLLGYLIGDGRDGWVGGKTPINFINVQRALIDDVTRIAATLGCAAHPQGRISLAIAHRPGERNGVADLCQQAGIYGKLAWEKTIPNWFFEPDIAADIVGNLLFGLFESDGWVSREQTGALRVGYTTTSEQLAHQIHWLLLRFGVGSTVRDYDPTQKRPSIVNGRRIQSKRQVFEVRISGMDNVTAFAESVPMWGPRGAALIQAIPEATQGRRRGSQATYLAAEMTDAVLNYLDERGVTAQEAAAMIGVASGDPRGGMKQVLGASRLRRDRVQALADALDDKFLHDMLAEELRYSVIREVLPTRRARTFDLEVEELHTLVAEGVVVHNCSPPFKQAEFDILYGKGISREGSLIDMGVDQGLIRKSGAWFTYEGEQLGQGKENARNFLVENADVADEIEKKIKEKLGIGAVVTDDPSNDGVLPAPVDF

[13] = molecular target: ATP-binding cassette sub-family B member 6 (Homo sapiens, UniProt Q9NP58); assay: concentration-dependent ABCB6 porphyrin transport blockade – K562-ABCB6 cells, flow cytometry, cherry pick 1, dose response (AID 623955); assay type: functional; conditions: read-out: EC50_MICROM
[14] = molecular target: Tyrosine-protein phosphatase non-receptor type 11 (Homo sapiens, UniProt Q06124); assay: PTPN11 enzyme inhibitors – biochemical, selectivity assay for STEP inhibitor project, dose response (AID 602367); assay type: functional; conditions: read-out: IC50_Mean
[15] = molecular target: Tyrosine-protein phosphatase non-receptor type 5 (Homo sapiens, UniProt P54829); assay: PTPN5 enzyme inhibition – biochemical, fluorescence intensity, uHTS hits, confirmation (AID 602372); assay type: functional; conditions: read-out: IC50_Mean
[16] = molecular target: Dual specificity protein phosphatase 3 (Homo sapiens, UniProt P51452); assay: VHR phosphatase inhibition, dose response, selectivity assay for STEP inhibitor project, biochemical (AID 602374); assay type: functional; conditions: read-out: IC50_Mean
[17] = Luminescence Cell-Based Dose Confirmation HTS to Identify Activators of 5'UTR Stem-Loop Driven Alpha-Synuclein mRNA Translation in H4 Neuroglioblastoma Cells. [Related pubchem assays: 1829 (Project Summary), 1814 (Primary HTS)]; assay type: functional
[18] = Luminescence Cell-Based Dose Response HTS to Identify Activators of Luciferase Translation or Activity in H4 […] Cells. [Related pubchem assays: 1829 (Project Summary), 1814 (Primary HTS)]; assay type: functional
[19] = system: H4; assay: Luminescence Cell-Based Dose Response HTS to Identify Activators of 5'UTR Stem-Loop Driven Prion Protein mRNA Translation in H4 Neuroglioblastoma Cells. [Related pubchem assays: 1829 (Project Summary), 1814 (Primary HTS)]; assay type: functional; conditions: Homo sapiens
[20] = molecular target: Heat shock protein HSP 90-alpha (Homo sapiens, UniProt P07900); assay type: functional, organism-based
[21] = Fluorescence-based cell-based high throughput dose response assay for inhibitors of the interaction of nucleotide-binding oligomerization domain containing 2 (NOD2) and the receptor-interacting serine-threonine kinase 2 (RIPK2).; assay type: functional; conditions: Homo sapiens
[22] = reduced cellular PGC1a acetyl-lysine signal – cell-based, cherry-picked samples, dose response (AID 720514); assay type: functional;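 note: potency may reflect raised or lowered acetylation signal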
[23] = molecular target: T3, Sentrin-specific protease 8 (Homo sapiens, UniProt Q96LD8); assay type: functional
T3 sequence (Q96LD8 whole entry): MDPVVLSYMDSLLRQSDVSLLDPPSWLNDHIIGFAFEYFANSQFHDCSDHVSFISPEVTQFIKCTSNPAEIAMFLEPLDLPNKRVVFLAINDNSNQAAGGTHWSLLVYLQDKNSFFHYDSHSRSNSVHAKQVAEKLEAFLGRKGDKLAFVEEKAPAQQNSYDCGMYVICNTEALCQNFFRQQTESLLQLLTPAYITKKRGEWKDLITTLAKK

[24] = molecular target: T3, Sentrin-specific protease 8; assay type: functional; remark: listed apart in the source
[25] = molecular target: Protein S100-A4 (Homo sapiens, UniProt P26447); assay: human S100A4 peptide interaction inhibition curves – biochemical, fluorescence polarization, cherry-picked hits, dose response (AID 687001); assay type: functional
Protein S100-A4, sequence (P26447 whole entry): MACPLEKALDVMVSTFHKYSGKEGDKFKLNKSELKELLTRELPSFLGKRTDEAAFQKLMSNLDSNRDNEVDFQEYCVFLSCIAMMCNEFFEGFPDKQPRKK

Tyrosine-protein phosphatase non-receptor type 11, sequence (Q06124 whole entry): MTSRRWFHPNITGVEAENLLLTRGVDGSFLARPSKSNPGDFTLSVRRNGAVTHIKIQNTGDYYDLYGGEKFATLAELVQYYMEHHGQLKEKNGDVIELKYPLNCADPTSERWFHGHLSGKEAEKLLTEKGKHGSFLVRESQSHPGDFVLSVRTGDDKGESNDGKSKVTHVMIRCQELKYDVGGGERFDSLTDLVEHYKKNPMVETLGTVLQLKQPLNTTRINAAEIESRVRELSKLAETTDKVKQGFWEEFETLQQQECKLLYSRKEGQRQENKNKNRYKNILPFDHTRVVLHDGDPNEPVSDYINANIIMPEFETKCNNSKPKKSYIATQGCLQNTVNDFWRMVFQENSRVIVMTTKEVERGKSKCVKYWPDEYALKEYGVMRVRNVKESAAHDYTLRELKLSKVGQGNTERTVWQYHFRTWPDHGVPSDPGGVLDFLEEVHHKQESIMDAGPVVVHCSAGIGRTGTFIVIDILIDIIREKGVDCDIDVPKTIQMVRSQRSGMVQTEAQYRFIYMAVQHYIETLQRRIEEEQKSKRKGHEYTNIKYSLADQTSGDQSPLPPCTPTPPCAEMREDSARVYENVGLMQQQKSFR
Dual specificity protein phosphatase 3, sequence (P51452 whole entry): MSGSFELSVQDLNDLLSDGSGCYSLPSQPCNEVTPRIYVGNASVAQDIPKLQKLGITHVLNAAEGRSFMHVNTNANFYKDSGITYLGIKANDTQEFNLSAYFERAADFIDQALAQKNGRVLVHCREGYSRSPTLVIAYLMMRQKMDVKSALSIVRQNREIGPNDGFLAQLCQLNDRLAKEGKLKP
Tyrosine-protein phosphatase non-receptor type 5, sequence (P54829 whole entry): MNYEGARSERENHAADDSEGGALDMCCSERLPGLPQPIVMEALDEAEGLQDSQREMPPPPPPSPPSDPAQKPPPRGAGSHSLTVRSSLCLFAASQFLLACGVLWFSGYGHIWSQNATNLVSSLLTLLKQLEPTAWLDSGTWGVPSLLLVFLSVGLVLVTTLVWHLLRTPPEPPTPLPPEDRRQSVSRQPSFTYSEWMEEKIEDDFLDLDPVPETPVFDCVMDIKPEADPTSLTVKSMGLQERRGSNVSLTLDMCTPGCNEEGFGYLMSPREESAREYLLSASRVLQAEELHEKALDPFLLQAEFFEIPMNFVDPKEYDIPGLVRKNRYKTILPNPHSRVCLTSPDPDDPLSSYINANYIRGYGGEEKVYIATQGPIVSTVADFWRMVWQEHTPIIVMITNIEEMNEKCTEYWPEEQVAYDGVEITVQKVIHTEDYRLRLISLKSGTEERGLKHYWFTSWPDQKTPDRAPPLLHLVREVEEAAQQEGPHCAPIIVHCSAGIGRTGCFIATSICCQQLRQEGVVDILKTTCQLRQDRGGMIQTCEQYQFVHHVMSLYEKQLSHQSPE
ATP-binding cassette sub-family B member 6, sequence (Q9NP58 whole entry): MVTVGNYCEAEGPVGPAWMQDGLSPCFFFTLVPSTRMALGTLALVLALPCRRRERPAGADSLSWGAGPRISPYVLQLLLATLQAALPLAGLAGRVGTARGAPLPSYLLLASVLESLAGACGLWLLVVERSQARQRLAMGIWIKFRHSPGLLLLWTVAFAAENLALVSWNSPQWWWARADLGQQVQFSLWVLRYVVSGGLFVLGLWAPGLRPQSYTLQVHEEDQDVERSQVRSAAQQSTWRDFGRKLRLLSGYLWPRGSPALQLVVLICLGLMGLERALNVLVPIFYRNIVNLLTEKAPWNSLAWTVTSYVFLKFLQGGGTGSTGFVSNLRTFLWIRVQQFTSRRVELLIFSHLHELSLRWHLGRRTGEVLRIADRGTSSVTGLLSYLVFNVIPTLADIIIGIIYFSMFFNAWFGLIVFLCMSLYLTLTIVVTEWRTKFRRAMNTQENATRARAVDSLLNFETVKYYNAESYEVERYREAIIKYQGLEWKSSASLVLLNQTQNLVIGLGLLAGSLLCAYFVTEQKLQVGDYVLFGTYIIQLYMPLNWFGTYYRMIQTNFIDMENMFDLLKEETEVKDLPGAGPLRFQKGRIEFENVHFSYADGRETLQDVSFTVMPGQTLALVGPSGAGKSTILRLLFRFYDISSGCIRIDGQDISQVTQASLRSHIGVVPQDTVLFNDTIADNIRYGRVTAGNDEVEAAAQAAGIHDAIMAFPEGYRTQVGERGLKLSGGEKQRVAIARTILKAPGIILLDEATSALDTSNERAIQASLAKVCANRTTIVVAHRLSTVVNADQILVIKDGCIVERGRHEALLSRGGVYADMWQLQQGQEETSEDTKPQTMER
FAD-linked sulfhydryl oxidase ALR, sequence (P55789 whole entry): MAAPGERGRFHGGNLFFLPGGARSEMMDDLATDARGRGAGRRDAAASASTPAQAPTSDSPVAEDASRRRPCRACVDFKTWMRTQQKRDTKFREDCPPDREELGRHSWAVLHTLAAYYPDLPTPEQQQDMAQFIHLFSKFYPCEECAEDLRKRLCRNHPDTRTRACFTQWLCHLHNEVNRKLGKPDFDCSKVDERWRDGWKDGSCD

Question: Which EC50 [1] does the source give for `O=C(COc1ccc(Cl)cc1Cl)N1CCCN(C(=O)COc2ccc(Cl)cc2Cl)CC1` here?
Answer: > 150 µM (inactive)

Question: And the EC50 [2]?
Answer: 2.18 µM (active)

Question: And the EC50 [3]?
Answer: 1.39 µM (active)

Question: What about the EC50 [4] of the same compound?
Answer: > 30 µM (not active)

Question: What about the AC50 [5] of the same compound?
Answer: 3.52 µM (active)

Question: And the AC50 [6]?
Answer: 68.3 µM (active)

Question: And the AC50 [7]?
Answer: 3.44 µM (active)

Question: And the AC50 [8]?
Answer: 5.48 µM (active)

Question: What about the AC50 [9] of the same compound?
Answer: 3.24 µM (active)

Question: What does the source list for `Cc1cccc(CS(=O)(=O)c2ncc(Cl)c(C(=O)Nc3c(C)cccc3C)n2)c1`?
Answer: AC50 [10]: 0.164 µM (active); AC50 [11]: 4.28 µM (active); EC50 [12]: 4.66 µM (active); EC50 [13]: 74.5 µM (active)

Question: Which results are given for `O=C(NC1CCCCCC1)C(=S)NC1CCCCC1`?
Answer: IC50 [14]: 9.88 µM (active); IC50 [15]: 56.9 µM (inactive); IC50 [16]: 3.07 µM (active)

Question: Which results are given for `O=c1oc(-c2ccccc2)cc(Cl)c1Cl`?
Answer: EC50 [17]: > 120 µM (not active); EC50 [18]: > 120 µM (not active); EC50 [19]: > 60 µM (not active); AC50 [11]: 10.5 µM (active); AC50 [20]: 2.64 µM (active); EC50 [12]: 4.74 µM (active); IC50 [21]: 1.15 µM (active); AC50 [22]: 11.2 µM (active)

Question: What does the source list for `COC(=O)CCCC1=CC2=CC(=O)C(C)(OC(=O)c3cccs3)C(=O)C2=CN1C1CCCC1` (configuration not stated)?
Answer: IC50 [23]: 7.97 µM (active); IC50 [24]: 5.99 µM (active)

Question: Which AC50 [25] does the source give for `Cc1cc(C)c(S(=O)(=O)NCc2ccc3c(c2)cc(C)n3C)c(C)c1` here?
Answer: 10.7 µM (active)
